For orientation: IC50 means the point on the concentration scale where inhibition reaches its midpoint.

In one experiment the target is T1, HCV RNA-dependent RNA polymerase (NS5B protein) (Hepatitis C virus genotype 1b, UniProt P26663).
T1 construct: The cDNA encoding the entire NS5B protein of HCV-Bk strain, genotype 1b; initiator Met (ATG added before the NS5B coding region) (N); made in house; host or cells: Sf9 insect cells, recombinant baculovirus (pBlueBacII, BacNS5B)
T1 sequence (P26663 2420-3010): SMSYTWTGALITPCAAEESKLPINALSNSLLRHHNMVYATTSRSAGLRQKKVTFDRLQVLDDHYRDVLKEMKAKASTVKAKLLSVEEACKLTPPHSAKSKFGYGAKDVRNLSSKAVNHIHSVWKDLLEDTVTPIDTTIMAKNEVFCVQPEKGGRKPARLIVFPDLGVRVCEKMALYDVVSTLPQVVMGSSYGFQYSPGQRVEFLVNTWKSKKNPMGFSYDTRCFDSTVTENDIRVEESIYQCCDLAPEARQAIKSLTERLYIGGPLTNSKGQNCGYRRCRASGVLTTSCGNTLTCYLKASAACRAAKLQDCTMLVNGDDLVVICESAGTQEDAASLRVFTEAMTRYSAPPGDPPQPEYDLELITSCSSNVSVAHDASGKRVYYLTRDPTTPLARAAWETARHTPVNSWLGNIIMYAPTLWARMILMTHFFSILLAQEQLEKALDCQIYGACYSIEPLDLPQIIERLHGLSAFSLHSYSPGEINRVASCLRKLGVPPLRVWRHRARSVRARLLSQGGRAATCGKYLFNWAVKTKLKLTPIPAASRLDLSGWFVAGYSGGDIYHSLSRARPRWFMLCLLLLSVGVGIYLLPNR
The experiment in a line: HCV RNA-dependent RNA polymerase assay (in vitro RdRp assay, heteropolymeric RNA template). The settings on record: natural NTP substrates of purified NS5B in the RdRp assay. The class given is biochemical, HCV-Bk strain. The protocol:
Compounds were evaluated using an in vitro polymerase assay containing purified recombinant HCV RNA-dependent RNA polymerase (NS5B protein). HCV NS5B was expressed in insect cells using a recombinant baculovirus as vector. The experimental procedures used for the cloning, expression and purification of the HCV NS5B protein are described below. Following are details of the RNA-dependent RNA polymerase assays used to test the compounds.
The cDNA encoding the entire NS5B protein of HCV-Bk strain, genotype 1b, was amplified by PCR using a plasmid containing a cDNA version of the full-length HCV genome as template. The oligonucleotides used to amplify this HCV region were designed to introduce a NheI site followed by an ATG at the 5′ end of the NS5B coding region as well as a BamHI site at the 3′end immediately downstream of the translation stop codon. The amplified sequence, of 1.8 kb, was digested with NheI and BamHI and ligated to a predigested pBlueBacII plasmid (Invitrogen). The resulting recombinant plasmid was designated pBac/NS5B. Sf9 cells were co-transfected with 3 μg of pBac/NS5B, together with 1 μg of linearized baculovirus DNA (Invitrogen), as described in the manufacturer's protocol. Following two rounds of plaque purification, an NS5B-recombinant baculovirus, BacNS5B, was isolated. The presence of the recombinant NS5B protein was determined by western blot analysis (Harlow and Lane, 1988) of BacNS5B-infected Sf9 cells, using a HCV NS5B specific rabbit polyclonal antiserum (anti-NS5B). Infections of Sf9 cells with this plaque purified virus were performed in one-liter spinner flasks at a cell density of 1.2×10^6 cells/ml and a multiplicity of infection of 5.
Sf9 cells were infected as described above. Sixty hours post-infection, cells were harvested then washed twice with phosphate buffer saline (PBS). Total proteins were solubilized as described in Lohmann et al. […] with some modifications. In brief, proteins were extracted in three steps, S1, S2, S3, using lysis buffers (LB) I, LB II and LB III (Lohmann et al, 1997). The composition of LBII was modified to contain 0.1% triton X-100 and 150 mM NaCl to reduce the amount of solubilized NS5B protein at this step. In addition, sonication of cell extracts was avoided throughout the protocol to preserve the integrity of the protein structure.
Soluble NS5B protein in the S3 fraction was diluted to lower the NaCl concentration to 300 mM, then it incubated batchwise with DEAE sepharose beads (Amersham-Pharmacia) for 2 hrs at […], as described by Behrens et al. (1989). Unbound material was cleared by centrifugation for 15 min at 4° C., at 25 000 rpm using a SW41 rotor (Beckman). The supernatant was further diluted to lower the NaCl concentration to 200 mM and subsequently loaded, with a flow rate of 1 ml/min, on a 5 ml HiTrap® heparin column (Amersham-Pharmacia) connected to an FPLC® system (Amersham-Pharmacia). Bound proteins were eluted in 1 ml fractions, using a continuous NaCl gradient of 0.2 to 1 M, over a 25 ml volume. NS5B-containing fractions were identified by sodium dodecyl sulfate polyacrylamide gel electrophoresis (SDS-PAGE), followed by western blotting using the anti-NS5B antiserum at a dilution of 1:2000. Positive fractions were pooled and the elution buffer was exchanged against a 50 mM NaPO4 pH 7.0, 20% glycerol, 0.5% triton X-100 and 10 mM DTT, using a PD-10 column (Amersham-Pharmacia). The sample was then loaded onto a 1 ml HiTrap® SP column (Amersham-Pharmacia), with a flow rate of 0.1 ml/min. Bound proteins were eluted using a continuous 0 to 1 M NaCl gradient over a 15 ml volume. Eluted fractions were analyzed by SDS-PAGE and western blotting. Alternatively, proteins were visualized, following SDS-PAGE, by silver staining using the Silver Stain Plus kit (BiORad) as described by the manufacturer.
RdRp assays were conducted using in vitro transcribed heteropolymeric RNA templates. […]
Turning to `Nc1ncnc2c1ncn2[C@@H]1O[C@H](COP(=O)(O)OP(=O)(O)OP(=O)(O)O)[C@@H](O)[C@H]1O` [ATP, reference compound], the “measured Kms for the four substrates” value is 18 µM. The same measure, in the same setting: the figure for `O=c1ccn([C@@H]2O[C@H](COP(=O)(O)OP(=O)(O)OP(=O)(O)O)[C@@H](O)[C@H]2O)c(=O)[nH]1` [UTP, reference compound] is 1.2 µM.

For `Nc1ccn([C@@H]2O[C@H](COP(=O)(O)OP(=O)(O)OP(=O)(O)O)[C@@H](O)[C@H]2O)c(=O)n1` [CTP, reference compound], the “measured Kms for the four substrates” value was determined as 0.5 µM.

`Nc1nc2c(ncn2[C@@H]2O[C@H](COP(=O)(O)OP(=O)(O)OP(=O)(O)O)[C@@H](O)[C@H]2O)c(=O)[nH]1` [GTP, reference compound]: the “measured Kms for the four substrates” value is 0.5 µM.

Staying with this experiment, now noted: purified recombinant NS5B 200 ng; competing NTP at twice Km, other NTPs 100 μM; 2 h at 22° C.; triphosphate form tested.
With `Cc1cn([C@@H]2O[C@H](COP(=O)(O)OP(=O)(O)OP(=O)(O)O)C[C@H]2O)c(=O)nc1N` [COMPOUND#16, 5-Methyl-3′-deoxycytidine-5′triphosphate], the 50% inhibitory concentration (IC50) came out at 360 nM.

For `O=c1[nH]c(=O)n([C@@H]2O[C@H](COP(=O)(O)OP(=O)(O)OP(=O)(O)O)C[C@H]2O)cc1Cl` [COMPOUND#28, 5-Chloro-3′-deoxyuridine-5′triphosphate], the half-maximal inhibitory concentration (IC50) amounted to 2100 nM. Still for that read-out and setting: the figure for `O=c1ccn([C@@H]2O[C@H](COP(=O)(O)OP(=O)(O)OP(=O)(O)O)C[C@H]2O)c(=O)[nH]1` [COMPOUND#6, 3′-deoxyuridine-5′triphosphate] is 260 nM. On the same count and under the same terms, the figure for `CC(=O)Nc1nc2c(ncn2[C@@H]2O[C@H](COP(=O)(O)OP(=O)(O)OP(=O)(O)O)C[C@H]2O)c(=O)[nH]1` [COMPOUND#14, 2-N-acetyl-3′-deoxyguanosine-5′triphosphate] is 3100 nM; for “6-Chloro- 3′-deoxyguanosine- 5′triphosphate [COMPOUND#32]” it is 6800 nM; for `Nc1nc2c(ncn2[C@@H]2O[C@H](COP(=O)(O)OP(=O)(O)OP(=O)(O)O)C[C@H]2O)c(=O)[nH]1` [COMPOUND#12, 3′-deoxyguanosine-5′triphosphate] it is 48 nM. Still for that read-out and setting: the figure for `Nc1nc(=O)n([C@@H]2O[C@H](COP(=O)(O)OP(=O)(O)OP(=O)(O)O)C[C@H]2O)cc1I` [COMPQUND#26, 5- = Iodp-3′-deoxycytidine-5′triphosphate] is 910 nM; for `Cc1cn([C@H]2CC[C@@H](COP(=O)(O)OP(=O)(O)OP(=O)(O)O)O2)c(=O)[nH]c1=O` [COMPOUND#10, 3′-deoxythymidine-5′triphosphate] it is 6400 nM; for `O=c1[nH]c(=O)n([C@@H]2O[C@H](COP(=O)(O)OP(=O)(O)OP(=O)(O)O)C[C@H]2O)cc1F` [COMPOUND#8, 5-Fluoro-3′-deoxyuridine-5′triphosphate] it is 1980 nM. On to `Nc1nc(=O)n([C@@H]2O[C@H](COP(=O)(O)OP(=O)(O)OP(=O)(O)O)C[C@H]2O)cc1Cl` [COMPOUND#20, 5- = Chloro-3′-deoxycytidine-5′triphosphate], for which the IC50 is 180 nM.

On to `Nc1ccn([C@@H]2O[C@H](COP(=O)(O)OP(=O)(O)OP(=O)(O)O)[C@@H](F)[C@H]2O)c(=O)n1` [COMPOUND#24, 3′-fluoro-3′-deoxycytidine-5′triphosphate], for which the IC50 was determined as 55 nM. For the compound `Nc1nc(=O)n([C@@H]2O[C@H](COP(=O)(O)OP(=O)(O)OP(=O)(O)O)C[C@H]2O)cc1I` [COMPOUND#18, 5-Iodo-3′-deoxycytidine-5′triphosphate], the IC50 stood at 6880 nM.

In the case of `Nc1ccn([C@@H]2O[C@H](COP(=O)(O)OP(=O)(O)OP(=O)(O)O)C[C@H]2O)c(=O)n1` [COMPOUND#2, 3′-deoxycytidine-5′triphosphate], the IC50 came out at 36 nM. `Nc1nc(=O)n([C@@H]2O[C@H](COP(=O)(O)OP(=O)(O)OP(=O)(O)O)C[C@H]2O)cc1F` [COMPOUND#4, 5-Fluoro-3′-deoxycytidine-5′triphosphate]: the IC50 came to 300 nM.

Take `[N-]=[N+]=N[C@H]1[C@@H](O)[C@H](n2ccc(N)nc2=O)O[C@@H]1COP(=O)(O)OP(=O)(O)OP(=O)(O)O` [COMPOUND#54, 3′-azido-3′-deoxycytidine 5′triphosphate]: the IC50 came to 9000 nM. Still for that read-out and setting: the figure for `Nc1nc(O)c2ncn([C@@H]3O[C@H](COP(=O)(O)OP(=O)(O)OP(=O)(O)O)[C@@H](F)[C@H]3O)c2n1` [COMPOUND#22, 3′-fluoro-3′-deoxyguanosine-5′triphosphate] is 120 nM; for `O=c1[nH]c(=O)n([C@@H]2O[C@H](COP(=O)(O)OP(=O)(O)OP(=O)(O)O)C[C@H]2O)cc1Br` [COMPOUND#30, 5-Bromo-3′-deoxyuridine-5′triphosphate] it is 2900 nM.

For the origin of these results see patent US20040248844A1, “Method for the treatment or prevention of Flavivirus infections using nucleoside analogues” (priority 2000, published 2004).
